Measurements as given in patent US12320799B2, “Methods of measuring signaling pathway activity for selection of therapeutic agents” (Celcuity Inc., priority 2017, dated 2025).

What was measured:
Type in all cases: cell-based, human
[1] = tested on: HER family signaling pathways and the c-Met signaling pathway; assay: CELx ex vivo test of C21 sample simultaneously agonized with NRG1, EGF and HGF; details: C21 cell sample simultaneously agonized with NRG1, EGF and HGF
Description: (§1) A HER2+ tumor cell sample, C21, was tested using essentially the same methods described in Examples 1 and 3 above to evaluate the status of the c-Met, EGFR, HER2 and HER3 pathways. […] Thus, this cell sample was suitable to assess whether cells found to be responsive to c-Met and EGFR inhibitors ex vivo in the CELx test would respond to these same inhibitors when another portion of the same cell sample was implanted in a xenograft mouse model.
(§2) This finding is not related to the receptor or gene amplification status of either receptor, nor observable when signaling activity is measured in isolation. This highlights the advantages of evaluating multiple signaling pathways simultaneously in live cells.

c-Met signaling = assay: CELx ex vivo test of C21 sample agonized only by HGF; details: C21 cell sample agonized only by HGF
Description: as §1, §2

FLT3 signaling pathway = assay: CELx multiple pathway test, impedance biosensor cell adhesion, FL/Gilteritnib pair; details: activator FL
Excerpt: Biosensor and transducer: A 96-well impendence E-Plate (ACEA, San Diego, CA) was placed onto an xCELLigence RTCA MP Station impendence biosensor (ACEA, San Diego, CA). The biosensor measured simultaneously the impedance of every well. The change in impedance for a particular well is proportional to the number of cells and type of attachment the cells have with the impedance microplate. Changes in impedance indicate a response to perturbation of these small cell populations. Coatings: The 96-E-Plate were wells were coated with fibronectin and or collagen. Collagen is purchased from Advanced BioMatrix (Carlsbad, CA) and fibronectin from Sigma-Aldrich (St. Louis, MO). Tissue and cell samples: A total of 18 samples of human tumor cells from breast, lung, colon, ovarian, kidney, bladder cancer were studied. For each of these six different cancer types, tumor cell samples from three different patients were tested. Any biomarkers that are used to guide selection of targeted therapy are listed in Table 18 for each patient if they were present. Signaling Pathways activator agent and targeted therapeutic pairs: Eleven different signaling pathways were studied in each human tumor cell sample using […] signaling pathway activator agent and targeted therapeutic pairs. Each of the signaling pathway activator agent and targeted therapeutic pairs affect the same signaling pathway. Each of the signaling pathway activator agents is a well-characterized and specific agonist of its associated signaling pathway and each of the targeted therapeutic agents is a well-characterized and specific antagonist of the same associated signaling pathway. The signaling pathway activator agents and targeted therapeutics used to characterize the activity level of the associated signaling pathway are summarized in Table 16 below:
Other Reagents: Standard media antibiotics (e.g. penicillin, streptomycin) and other buffers were purchased and used as delivered from ATCC (Manassas, VA, USA) or Life Technologies (Grand Island, NY). Procedure: For each test of a patient cell sample with a pair of signaling pathway activator and targeted therapeutic agents, six wells were seeded with approximately 15,000 cells in 120 uL culture media. Twenty microliters of the targeted therapeutic agent were added to two wells of each patient's cells and 20 microliters of standard media were added to the other four wells for each patient 18 hours in advance of addition of the signaling pathway activator agent. Signaling pathway stimulation was initiated with the addition of 20 ul of the signaling pathway activator agent in the two wells that received a targeted therapeutic agent and in two additional wells for each patient's set of cells without the targeted therapeutic. The impedance recording of attachment and adhesion change was performed at 37° C., 5% C02. Data was recorded on a continuous basis throughout the test, where the data presented is from the initial baseline level of cell attachment compared to the subsequent effects following the targeted therapeutic agent and the signaling pathway activator agent additions on the 18 different patient samples.
For each of the 18 patient samples, up to 11 different signaling pathways were tested. The output value represents the difference between the amount of cell adhesion change resulting from addition of the signaling pathway activator agent and the amount of cell adhesion change resulting from addition of the targeted therapeutic agent.

SMILES | total signaling inhibited [1] | percentage of c-Met signaling activity inhibited (c-Met signaling) [%] | output value (FLT3 signaling pathway; C2 breast tumor cells) | output value (FLT3 signaling pathway; C21 breast tumor cells) | output value (FLT3 signaling pathway; C34 breast tumor cells) | output value (FLT3 signaling pathway; C54 ovarian tumor cells) | output value (FLT3 signaling pathway; C77 ovarian tumor cells)
CN1CCC(COc2cnc(-c3cccc(Cn4nc(-c5cccc(C#N)c5)ccc4=O)c3)nc2)CC1 [tepotinib] | less than 10% | ~100 | – | – | – | – | –
CCc1nc(C(N)=O)c(Nc2ccc(N3CCC(N4CCN(C)CC4)CC3)c(OC)c2)nc1NC1CCOCC1 [Gilteritnib] | – | – | 7 | 9 | 10 | 10 | 6
